Bridge positions count the residues as written; N and C are the ends. Square brackets hold non-standard residues; d marks the D form. Peptide text beside a SMILES is read from it. Phe(4-CH2NHiPr) = CC(C)NCc1ccc(C[C@H](N)C(=O)O)cc1; d2Nal = N[C@H](Cc1ccc2ccccc2c1)C(=O)O
What was measured:
[1] = target: Somatostatin receptor type 1 (Homo sapiens, UniProt P30872); assay: Tested for ability to bind to 20 uM thick cryostat sections of a membrane pellet of cells transfected with human cloned somatostatin (sst) receptor subtype 1.
Somatostatin receptor type 1, sequence (P30872 whole entry): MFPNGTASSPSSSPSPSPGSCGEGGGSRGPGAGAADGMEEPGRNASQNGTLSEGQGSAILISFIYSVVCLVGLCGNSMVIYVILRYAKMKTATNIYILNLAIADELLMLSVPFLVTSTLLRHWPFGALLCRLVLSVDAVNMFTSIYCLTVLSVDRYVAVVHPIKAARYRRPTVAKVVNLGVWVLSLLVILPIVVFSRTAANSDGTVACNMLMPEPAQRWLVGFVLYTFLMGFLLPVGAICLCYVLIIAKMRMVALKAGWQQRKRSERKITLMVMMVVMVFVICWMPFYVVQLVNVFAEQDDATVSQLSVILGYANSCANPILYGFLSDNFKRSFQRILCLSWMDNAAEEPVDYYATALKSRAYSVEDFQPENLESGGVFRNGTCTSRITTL

[2] = target: Somatostatin receptor type 4 (Homo sapiens, UniProt P31391); assay: Tested for ability to bind to 20 uM thick cryostat sections of a membrane pellet of cells transfected with human cloned somatostatin (sst) receptor subtype 4.
Somatostatin receptor type 4, sequence (P31391 whole entry): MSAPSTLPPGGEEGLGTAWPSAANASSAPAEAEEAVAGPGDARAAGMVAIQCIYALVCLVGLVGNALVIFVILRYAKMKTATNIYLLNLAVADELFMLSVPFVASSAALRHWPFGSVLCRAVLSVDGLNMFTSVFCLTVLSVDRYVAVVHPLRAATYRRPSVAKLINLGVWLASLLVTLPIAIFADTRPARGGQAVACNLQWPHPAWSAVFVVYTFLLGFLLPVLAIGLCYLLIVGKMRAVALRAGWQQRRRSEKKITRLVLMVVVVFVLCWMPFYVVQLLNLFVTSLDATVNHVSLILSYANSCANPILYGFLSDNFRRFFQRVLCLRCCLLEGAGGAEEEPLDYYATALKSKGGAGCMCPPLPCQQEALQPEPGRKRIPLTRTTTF

[3] = target: Somatostatin receptor type 5 (Homo sapiens, UniProt P35346); assay: Tested for ability to bind to 20 uM thick cryostat sections of a membrane pellet of cells transfected with human cloned somatostatin (sst) receptor subtype 5.
Somatostatin receptor type 5, sequence (P35346 whole entry): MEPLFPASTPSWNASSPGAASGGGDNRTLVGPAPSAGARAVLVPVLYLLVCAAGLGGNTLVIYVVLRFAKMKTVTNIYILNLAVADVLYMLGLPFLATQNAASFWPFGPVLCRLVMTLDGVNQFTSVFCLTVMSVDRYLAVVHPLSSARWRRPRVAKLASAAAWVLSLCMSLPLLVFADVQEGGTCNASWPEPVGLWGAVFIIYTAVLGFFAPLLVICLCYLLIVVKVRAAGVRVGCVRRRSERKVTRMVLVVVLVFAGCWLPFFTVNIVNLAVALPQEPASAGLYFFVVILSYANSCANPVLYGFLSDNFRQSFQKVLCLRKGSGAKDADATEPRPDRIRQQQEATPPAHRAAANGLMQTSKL

[4] = target: Somatostatin receptor type 2 (Homo sapiens, UniProt P30874); assay: Tested for ability to bind to 20 uM thick cryostat sections of a membrane pellet of cells transfected with human cloned somatostatin (sst) receptor subtype 2.
Somatostatin receptor type 2, sequence (P30874 whole entry): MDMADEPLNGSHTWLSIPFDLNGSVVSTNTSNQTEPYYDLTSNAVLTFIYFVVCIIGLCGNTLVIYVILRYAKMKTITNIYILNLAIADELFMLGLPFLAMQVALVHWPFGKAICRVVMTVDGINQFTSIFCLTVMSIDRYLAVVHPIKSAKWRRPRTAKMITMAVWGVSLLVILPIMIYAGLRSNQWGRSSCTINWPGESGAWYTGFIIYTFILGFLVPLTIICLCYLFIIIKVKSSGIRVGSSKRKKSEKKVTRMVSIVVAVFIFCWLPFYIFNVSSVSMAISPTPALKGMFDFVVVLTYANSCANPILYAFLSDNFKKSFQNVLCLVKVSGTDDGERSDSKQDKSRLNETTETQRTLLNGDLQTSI

[5] = target: Somatostatin receptor type 3 (Homo sapiens, UniProt P32745); assay: Tested for ability to bind to 20 uM thick cryostat sections of a membrane pellet of cells transfected with human cloned somatostatin (sst) receptor subtype 3.
Somatostatin receptor type 3, sequence (P32745 whole entry): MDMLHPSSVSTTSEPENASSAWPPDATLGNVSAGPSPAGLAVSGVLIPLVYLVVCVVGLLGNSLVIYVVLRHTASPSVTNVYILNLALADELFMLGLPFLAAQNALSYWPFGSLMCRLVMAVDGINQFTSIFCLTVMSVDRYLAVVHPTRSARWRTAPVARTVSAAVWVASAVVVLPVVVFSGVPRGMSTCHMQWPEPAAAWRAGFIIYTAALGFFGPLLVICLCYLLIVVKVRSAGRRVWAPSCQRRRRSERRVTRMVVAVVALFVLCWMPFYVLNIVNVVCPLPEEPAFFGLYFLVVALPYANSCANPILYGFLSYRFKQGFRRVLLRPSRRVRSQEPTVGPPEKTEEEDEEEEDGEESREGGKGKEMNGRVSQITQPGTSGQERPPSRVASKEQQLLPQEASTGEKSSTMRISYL

Row | SMILES | IC50 [1] [nM] | IC50 [2] [nM] | IC50 [3] [nM] | IC50 [4] [nM] | IC50 [5] [nM]
1 | C[C@@H](O)[C@@H]1NC(=O)[C@H](Cc2ccccc2)NC(=O)[C@H]([C@@H](C)O)NC(=O)[C@H](CCCCN)NC(=O)[C@@H](Cc2c[nH]c3ccccc23)NC(=O)[C@H](Cc2ccccc2)NC(=O)[C@H](Cc2ccccc2)NC(=O)[C@H](CC(N)=O)NC(=O)[C@H](CCCCN)NC(=O)[C@@H](N)CSSC[C@@H](C(=O)O)NC(=O)[C@H](CO)NC1=O | 5.4 | 3.5 | 16.7 | 0.33 | 4.3
2 | C[C@H](N)C(=O)NCC(=O)N[C@H]1CSSC[C@@H](C(=O)O)NC(=O)[C@H](CO)NC(=O)[C@H]([C@@H](C)O)NC(=O)[C@H](Cc2ccccc2)NC(=O)[C@H]([C@@H](C)O)NC(=O)[C@H](CCCCN)NC(=O)[C@@H](Cc2c[nH]c3ccccc23)NC(=O)[C@H](Cc2ccccc2)NC(=O)[C@H](Cc2ccccc2)NC(=O)[C@H](CCCCN)NC1=O (H-AGCKFF[dW]KTFTSC-OH; disulfide 3-13) | 1 | 1.7 | 5 | 42.5 | 3.4
3 | CC(C)CN(Cc1ccc(C[C@@H]2NC(=O)[C@@H](Cc3c[nH]c4ccccc34)NC(=O)[C@H](Cc3ccccc3)NC(=O)[C@H](Cc3ccccc3)NC(=O)[C@H](CCCCN)NC(=O)[C@@H](N)CSSC[C@@H](C(=O)O)NC(=O)[C@H](CO)NC(=O)[C@H]([C@@H](C)O)NC(=O)[C@H](Cc3ccccc3)NC(=O)[C@H]([C@@H](C)O)NC2=O)cc1)CC(C)C | > 1000 | > 10000 | > 10000 | > 10000 | > 10000
4 | C[C@@H](O)[C@@H]1NC(=O)[C@H](Cc2ccccc2)NC(=O)[C@H]([C@@H](C)O)NC(=O)[C@H](Cc2ccc(Nc3nnc(N)[nH]3)cc2)NC(=O)[C@@H](Cc2c[nH]c3ccccc23)NC(=O)[C@H](Cc2ccccc2)NC(=O)[C@H](Cc2ccccc2)NC(=O)[C@H](CCCCN)NC(=O)[C@@H](N)CSSC[C@@H](C(=O)O)NC(=O)[C@H](CO)NC1=O | > 1000 | > 10000 | > 10000 | > 10000 | > 10000
5 | CC(C)NCc1ccc(C[C@@H]2NC(=O)[C@@H](Cc3c[nH]c4ccccc34)NC(=O)[C@H](Cc3ccccc3)NC(=O)[C@H](Cc3ccccc3)NC(=O)[C@H](CC(N)=O)NC(=O)[C@H](CCCCN)NC(=O)[C@@H](N)CSSC[C@@H](C(=O)O)NC(=O)[C@H](CO)NC(=O)[C@H]([C@@H](C)O)NC(=O)[C@H](Cc3ccccc3)NC(=O)[C@H]([C@@H](C)O)NC2=O)cc1 (H-CKNFF[dW][Phe(4-CH2NHiPr)]TFTSC-OH; disulfide 1-12) | 443 | > 10000 | > 10000 | > 1000 | > 10000
6 | CC(C)NCc1ccc(C[C@@H]2NC(=O)[C@@H](Cc3ccc4ccccc4c3)NC(=O)[C@H](Cc3ccccc3)NC(=O)[C@H](Cc3ccccc3)NC(=O)[C@H](CCCCN)NC(=O)[C@@H](N)CSSC[C@@H](C(=O)O)NC(=O)[C@H](CO)NC(=O)[C@H]([C@@H](C)O)NC(=O)[C@H](Cc3ccccc3)NC(=O)[C@H]([C@@H](C)O)NC2=O)cc1 (H-CKFF[d2Nal][Phe(4-CH2NHiPr)]TFTSC-OH; disulfide 1-11) | 103 | > 1000 | > 10000 | > 1000 | > 1000
7 | CC(C)NCc1ccc(C[C@@H]2NC(=O)[C@@H](Cc3c[nH]c4ccccc34)NC(=O)[C@H](Cc3ccccc3)NC(=O)[C@H](Cc3ccccc3)NC(=O)[C@H](CCCCN)NC(=O)[C@@H](N)CSSC[C@@H](C(=O)O)NC(=O)[C@@H](CO)NC(=O)[C@H]([C@@H](C)O)NC(=O)[C@H](Cc3ccccc3)NC(=O)[C@H]([C@@H](C)O)NC2=O)cc1 (H-CKFF[dW][Phe(4-CH2NHiPr)]TFT[dS]C-OH; disulfide 1-11) | 187 | > 1000 | > 1000 | > 10000 | > 1000
8 | CNCc1ccc(C[C@@H]2NC(=O)[C@@H](Cc3ccc4ccccc4c3)NC(=O)[C@H](Cc3ccccc3)NC(=O)[C@H](Cc3ccccc3)NC(=O)[C@H](CCCCN)NC(=O)[C@@H](N)CSSC[C@@H](C(=O)O)NC(=O)[C@H](CO)NC(=O)[C@H]([C@@H](C)O)NC(=O)[C@H](Cc3ccccc3)NC(=O)[C@H]([C@@H](C)O)NC2=O)cc1 | 101 | > 10000 | > 1000 | 556 | 280

— ChEMBL document CHEMBL1134520, “Potent somatostatin undecapeptide agonists selective for somatostatin receptor 1 (sst1)” (J Med Chem, 2001)
